From the Kinase Knowledgebase extract (Sharma et al. 2016)

target: CDK2 (UniProt P24941); experiment: Enzyme Assay

SMILES	IC50 [nM]
CC(C)c1nn(-c2c(Cl)cc(Cl)cc2Cl)c2nc(Cc3ccc(OCCN4CCN(C(C)C)CC4)cc3)[nH]c(=O)c12	< 10
CCOC(=O)CN1CCN(NC(=O)Nc2cccc3c2C(=O)c2c-3n[nH]c2-c2ccc(OCCN3CCCC3)cc2)CC1	< 100
CN1CCN(NC(=O)Nc2cccc3c2C(=O)c2c-3n[nH]c2-c2ccc(O)cc2)CC1	< 100
CCN(CCO)S(=O)(=O)c1cc(Cl)c(-n2nc(C(C)C)c3c(=O)[nH]c(Cc4ccc(OCCN5CCOCC5)cc4)nc32)c(Cl)c1	< 100
O=C(Nc1cccc2c1C(=O)c1c(-c3ccc(CN4CCN(c5ccccn5)CC4)cc3)n[nH]c1-2)NN1CCOCC1	< 100
CC(C)N1CCN(NC(=O)Nc2cccc3c2C(=O)c2c-3n[nH]c2-c2ccc(OCCN3CCCC3)cc2)CC1	< 10
CC(C)c1nn(-c2c(Cl)cccc2Cl)c2nc(Cc3ccc(OCCN4CCOCC4)cc3)[nH]c(=O)c12	< 10
Cc1cc(OCCCN2CCN(C(C)C)CC2)ccc1-c1[nH]nc2c1C(=O)c1c(NC(=O)NN3CCOCC3)cccc1-2	< 10
CC(C)c1nn(-c2c(Cl)cc(Cl)cc2Cl)c2nc(Cc3ccc(OCC(C)(C)O)cc3)[nH]c(=O)c12	< 100
O=C(Nc1cccc2c1C(=O)c1c(-c3ccc(OCc4nnn[nH]4)cc3)n[nH]c1-2)NN1CCOCC1	< 100
CC(C)c1nn(-c2c(Cl)cccc2Cl)c2nc(Cc3ccc(CN4CCN(C(C)C)CC4)c(O)c3)[nH]c(=O)c12	< 100
CN(C)C(=O)COc1ccc(-c2[nH]nc3c2C(=O)c2c(NC(=O)NN4CCOCC4)cccc2-3)cc1	< 10
Cc1noc(COc2ccc(-c3[nH]nc4c3C(=O)c3c(NC(=O)NN5CCN(C)CC5)cccc3-4)cc2)n1	< 100
CN(C)C(=O)CN1CCN(NC(=O)Nc2cccc3c2C(=O)c2c-3n[nH]c2-c2ccc(OCCN3CCCC3)cc2)CC1	< 100
O=C(Nc1cccc2c1C(=O)c1c(-c3ccc(CN(CCO)CCO)cc3)n[nH]c1-2)NN1CCOCC1	< 100
Cc1cc(OCCN2CCCC2)ccc1-c1[nH]nc2c1C(=O)c1c(NC(=O)NN3CCOCC3)cccc1-2	< 10
CC(C)c1nn(-c2c(Cl)cc(Cl)cc2Cl)c2nc(Cc3ccc(NS(=O)(=O)CCCN4CCN(C(C)C)CC4)cc3)[nH]c(=O)c12	< 100
CN1CCN(NC(=O)Nc2cccc3c2C(=O)c2c(-c4ccc(OCCN5CCCC5)cc4F)n[nH]c2-3)CC1	< 100
CC(C)c1nn(-c2c(Cl)cccc2Cl)c2nc(Cc3ccc(O)c(CN4CCOCC4)c3)[nH]c(=O)c12	< 100
O=C(Nc1cccc2c1C(=O)c1c-2n[nH]c1-c1ccc(O)c(CN2CCOCC2)c1)NN1CCOCC1	< 100
Cc1cc(-c2[nH]nc3c2C(=O)c2c(NC(=O)NN4CCN(C)CC4)cccc2-3)ccc1OCCN1CCN(C(C)C)CC1	< 100
CC(C)c1nn(-c2c(Cl)cccc2Cl)c2nc(Cc3ccc(O)cc3)[nH]c(=O)c12	< 10
CC(C)c1nn(-c2c(Cl)cccc2Cl)c2nc(Cc3ccc(C(=O)NOCCN4CCOCC4)cc3)[nH]c(=O)c12	< 100
Cc1cc(OCCn2cccn2)ccc1-c1[nH]nc2c1C(=O)c1c(NC(=O)NN3CCN(C)CC3)cccc1-2	< 100
CN1CCN(Cc2ccc(-c3n[nH]c4c3C(=O)c3c(NC(=O)NN5CCOCC5)cccc3-4)cc2)CC1	< 100
Cc1cc(-c2[nH]nc3c2C(=O)c2c(NC(=O)NN4CCOCC4)cccc2-3)ccc1OCCN1CCCC1	< 100
Cc1cc(OCCN2CCN(C(C)C)CC2)ccc1-c1[nH]nc2c1C(=O)c1c(NC(=O)NN3CCN(C)CC3)cccc1-2	< 100

SMILES	IC50 [nM]
O=C(Nc1cccc2c1C(=O)c1c(-c3ccc(CN4CCCC4)cc3)n[nH]c1-2)NN1CCOCC1	< 100
Cc1cc(OCCN2CCOCC2)ccc1-c1[nH]nc2c1C(=O)c1c(NC(=O)NN3CCN(C)CC3)cccc1-2	< 100
CN1CCN(NC(=O)Nc2cccc3c2C(=O)c2c(-c4ccc(OCCN5CCCC5)c(F)c4)n[nH]c2-3)CC1	< 100
COc1cc(-c2[nH]nc3c2C(=O)c2c(NC(=O)NN4CCOCC4)cccc2-3)ccc1OCCN1CCCC1	< 100
O=C(Nc1cccc2c1C(=O)c1c(-c3ccc(CN4CCC(O)CC4)cc3)n[nH]c1-2)NN1CCOCC1	< 100
CC(C)c1nn(-c2c(Cl)cccc2Cl)c2nc(Cc3ccc(NS(=O)(=O)CCCN4CCOCC4)cc3)[nH]c(=O)c12	< 100
CC(C)N1CCN(S(=O)(=O)c2ccc(-c3[nH]nc4c3C(=O)c3c(NC(=O)NN5CCOCC5)cccc3-4)cc2)CC1	< 10
O=C(Nc1cccc2c1C(=O)c1c(-c3ccc(OCCN4CCOCC4)c(F)c3)n[nH]c1-2)NN1CCOCC1	< 100
O=C(Nc1cccc2c1C(=O)c1c-2n[nH]c1-c1ccc(S(=O)(=O)N2CCNCC2)cc1)NN1CCOCC1	< 100
CN1CCN(NC(=O)Nc2cccc3c2C(=O)c2c-3n[nH]c2-c2ccc(OCC(=O)N3CCCC3)cc2)CC1	< 100
CN1CCN(NC(=O)Nc2cccc3c2C(=O)c2c-3n[nH]c2-c2ccc(OCCN3CC[C@H](O)C3)cc2)CC1	< 100
CN1CCN(NC(=O)Nc2cccc3c2C(=O)c2c-3n[nH]c2-c2ccc(OCCN3CCC[C@H]3CO)cc2)CC1	< 100
CC(C)N1CCN(CCOc2ccc(-c3n[nH]c4c3C(=O)c3c(NC(=O)NN5CCOCC5)cccc3-4)c(F)c2)CC1	< 100
CC(C)OC(=O)CN1CCN(NC(=O)Nc2cccc3c2C(=O)c2c-3n[nH]c2-c2ccc(OCCN3CCCC3)cc2)CC1	< 100
Cc1cc(OCCN2CCCCC2)ccc1-c1[nH]nc2c1C(=O)c1c(NC(=O)NN3CCN(C)CC3)cccc1-2	< 100
CC(C)N1CCN(Cc2cc(-c3[nH]nc4c3C(=O)c3c(NC(=O)NN5CCOCC5)cccc3-4)ccc2O)CC1	< 100
Cc1cc(OCCN2CCCC2)ccc1-c1[nH]nc2c1C(=O)c1c(NC(=O)NN3CCN(C)CC3)cccc1-2	< 100
CC(C)c1nn(-c2c(Cl)cccc2Cl)c2nc(Cc3ccc(OCC(C)(C)O)cc3)[nH]c(=O)c12	< 100
Cc1cc(-c2[nH]nc3c2C(=O)c2c(NC(=O)NN4CCN(C)CC4)cccc2-3)ccc1OCCN1CCCC1	< 100
O=C(O)COc1ccc(-c2n[nH]c3c2C(=O)c2c(NC(=O)NN4CCOCC4)cccc2-3)cc1	< 10
O=C(Nc1cccc2c1C(=O)c1c(-c3ccc(CN4CCN(CCO)CC4)cc3)n[nH]c1-2)NN1CCOCC1	< 100
CCN1CCN(S(=O)(=O)c2cc(Cl)c(-n3nc(C(C)C)c4c(=O)[nH]c(Cc5ccc(OCCN6CCOCC6)cc5)nc43)c(Cl)c2)CC1	< 1000
O=C(Nc1cccc2c1C(=O)c1c(-c3ccc(CN4CCN(c5cccc(C(F)(F)F)c5)CC4)cc3)n[nH]c1-2)NN1CCOCC1	< 100
CC(C)c1nn(-c2c(Cl)cc(Cl)cc2Cl)c2nc(Cc3ccc(CN4CCN(C(C)C)CC4)n3C)[nH]c(=O)c12	< 100
CN1CCN(NC(=O)Nc2cccc3c2C(=O)c2c-3n[nH]c2-c2ccc(OCCN(CCO)CCO)cc2)CC1	< 100
CC(C)c1nn(-c2c(Cl)cccc2Cl)c2nc(Cc3ccc(OCCN4CCOCC4)c(O)c3)[nH]c(=O)c12	< 100
CN1CCN(NC(=O)Nc2cccc3c2C(=O)c2c-3n[nH]c2-c2ccc(OCCn3cccn3)cc2)CC1	< 100

SMILES	IC50 [nM]
Cc1noc(COc2ccc(-c3[nH]nc4c3C(=O)c3c(NC(=O)NN5CCOCC5)cccc3-4)cc2)n1	< 100
CCOC(=O)COc1ccc(-c2[nH]nc3c2C(=O)c2c(NC(=O)NN4CCOCC4)cccc2-3)cc1	< 100
CC(C)c1nn(-c2c(Cl)cc(Cl)cc2Cl)c2nc(Cc3ccc(OCCO)cc3)[nH]c(=O)c12	< 100
O=C(Nc1cccc2c1C(=O)c1c-2n[nH]c1-c1ccc(OCC(=O)N2CCCC2)cc1)NN1CCOCC1	< 100
CC(C)c1nn(-c2c(Cl)cc(Cl)cc2Cl)c2nc(Cc3ccc(CN4CCCC4)n3C)[nH]c(=O)c12	< 100
O=C(Nc1cccc2c1C(=O)c1c-2n[nH]c1-c1ccc(OP(=O)(O)O)cc1)NN1CCOCC1	< 100
CC(C)N1CCN(CCOc2ccc(-c3n[nH]c4c3C(=O)c3c(NC(=O)NN5CCOCC5)cccc3-4)cc2F)CC1	< 10
Cc1cc(-c2[nH]nc3c2C(=O)c2c(NC(=O)NN4CCOCC4)cccc2-3)ccc1OCCN1CCN(C(C)C)CC1	< 10
COCCN1CCN(Cc2ccc(-c3[nH]nc4c3C(=O)c3c(NC(=O)NN5CCOCC5)cccc3-4)cc2)CC1	< 10
CC(C)c1nn(-c2c(Cl)cccc2Cl)c2nc(Cc3ccc(OCCO)cc3)[nH]c(=O)c12	< 100
CC(C)c1nn(-c2c(Cl)cc(Cl)cc2Cl)c2nc(Cc3ccc(CNC(CO)CO)n3C)[nH]c(=O)c12	< 10
COc1ccc(Cc2nc3c(c(C(C)C)nn3-c3c(Cl)cccc3Cl)c(=O)[nH]2)cc1	< 10
COCCOc1ccc(Cc2nc3c(c(C(C)C)nn3-c3c(Cl)cccc3Cl)c(=O)[nH]2)cc1	< 100
O=C(Nc1cccc2c1C(=O)c1c-2n[nH]c1-c1ccc(OCCN2CCOCC2)cc1)NN1CCOCC1	< 100
CC(C)C(N)C(=O)OCCN1CCN(NC(=O)Nc2cccc3c2C(=O)c2c-3n[nH]c2-c2ccc(OCCN3CCCC3)cc2)CC1 (stereo not given)	< 100
CC(C)c1nn(-c2c(Cl)cc(Cl)cc2Cl)c2nc(Cc3ccc(NS(=O)(=O)CCCN4CCCCC4)cc3)[nH]c(=O)c12	< 100
O=C(Nc1cccc2c1C(=O)c1c-2n[nH]c1-c1ccc(OCC(=O)N2CCOCC2)cc1)NN1CCOCC1	< 100
CC(C)c1nn(-c2c(Cl)cccc2Cl)c2nc(Cc3ccc(CN4CCCC4)c(O)c3)[nH]c(=O)c12	< 100
CC(C)N1CCN(C(=O)COc2ccc(-c3[nH]nc4c3C(=O)c3c(NC(=O)NN5CCOCC5)cccc3-4)cc2)CC1	< 100
CC(C)N1CCN(CCCOc2ccc(-c3[nH]nc4c3C(=O)c3c(NC(=O)NN5CCOCC5)cccc3-4)cc2)CC1	< 10
O=C(Nc1cccc2c1C(=O)c1c(-c3ccc(OCCN4CCOCC4)cc3Cl)n[nH]c1-2)NN1CCOCC1	< 100
O=C(Nc1cccc2c1C(=O)c1c(-c3ccc(CN4CCOCC4)cc3)n[nH]c1-2)NN1CCOCC1	< 100
CC(C)c1nn(-c2c(Cl)cc(Cl)cc2Cl)c2nc(Cc3ccc(NS(=O)(=O)CCCN4CCCC4)cc3)[nH]c(=O)c12	< 100
Cc1nc(Cc2nc3c(c(C(C)C)nn3-c3c(Cl)cccc3Cl)c(=O)[nH]2)cs1	< 10
CC(C)N1CCN(C(=O)COc2ccc(-c3n[nH]c4c3C(=O)c3c(NC(=O)NN5CCOCC5)cccc3-4)cc2)CC1	< 100
Cc1cc(OCCN2CCCN(C)CC2)ccc1-c1[nH]nc2c1C(=O)c1c(NC(=O)NN3CCN(C)CC3)cccc1-2	< 100
